“Also recorded” adds a separate entry of the source.
Legend:
[1] = tested on: L2, SW982, HCT116, 231 cells; experiment: Cytotoxicity assay (MTT) on four cell lines; assay type: cell-based, rat, human; conditions: 48 h, 10- to 10000-fold dilutions of 1 mg/g
Description: Four different cell lines were used for the evaluation of the tested formulations and unformulated bufotenin. • L2:Rat lung cells (Normal) https://www.atcc.org/products/ccl-149 • SW982: The human synovial sarcoma cells https://www.atcc.org/products/htb-93 • HCT116: The human colon cancer cells https://www.atcc.org/products/ccl-247 • 231: The human breast cancer cells https://www.atcc.org/products/crm-htb-26
Cytotoxicity assay: The effect of the NEs on cell viability was measured by MTT assay following the method by Mosmann and colleagues. Briefly, the cells were seeded in a 96 well micro titer plate (100 μL per well) with replications. After 24 h, cells were treated with 50 μL of the analyte at four different dilutions (10,100,1000, and 10000-fold), added directly to wells with culture media. The starting concentration for Kolliphor-Bf-SNEDDS, Kolliphor-Bfa-t-SNEDDSand unformulated bufoteninin DMSO were 1 mg·g^−1. After incubation for 48 h, the media was discarded. 100 μL of 0.5 mg·mL^−1 MTT stock solution was added to each well and incubated for 4 h at 37° C. The obtained formazan crystals were solubilized with DMSO, and the absorbance was measured at 570 nm using a microplate reader (SpectraMax M5e, Molecular Devices, USA). Cell viability (%) was calculated as a ratio of absorbance (A570) in treated cells to absorbance in control cells (intact cells without treatment) (A570).

[2] = tested on: human glioma U251 GBM cells; experiment: Cellular uptake, flow cytometry and fluorescence microscopy; assay type: cell-based; conditions: flow cytometry and fluorescence imaging
Description: Cellular uptake studies: The human glioma U251 GBM cells were cultured at 5×10^4 cells per well in 12 plates using EMEM media supplemented with 10% FBS, 0.5% PenStrep and 1% w/non-essential amino acids (NEAA); then, washed with 0.05% trypsin. The cells were cells were incubated overnight at 37° C. in a humidified 5% CO2 atmosphere. The cells were treated with NEs loaded with bufotenine and Nile Red dye diluted to 0.1 mg/ml in PBS. Untreated cells were used as a negative control a long with a solution of unformulated API and Nile Red. This was done to serve as a sort of a positive control against the negative control of the untreated cells. After 24 h exposure, cells were washed twice with PBS and then collected in PBS-EDTA media (2 mM). The flow cytometry was performed using a BD C6 Flow Cytometry apparatus at a wavelength of 488 nm laser. For each experiment 10,000 cells were gated per sample and each sample was performed in triplicate. These cells prepared as such were used for fluorescence analysis. Fluorescence images were taken using a Leica CRT 6500 at the desired magnification using Texas Red Set (Leica TX2 ET Set) filter and exciting the samples using a continuous wave Ar+ laser at 488 nm.

With `CN(C)CCc1c[nH]c2ccc(O)cc12` [unformulated bufotenin, 5-Hydroxy-N,N-dimethyltryptamine] the “cytotoxicity / cell viability” value [1] was “no effect on their viability” and the “cellular uptake (in words)” value [2] was “no unformulated bufotenin penetrated the glioma cells; also recorded: negligible”.

From patent US20240226005A1, “NANO- AND MICRO-FORMULATIONS” (Huxley Health Inc., priority 2023, published 2024)
